Data on one compound can be found in article PMC5006034 (Scientific Reports, 2016).

SMILES strings stand for the structures.

The experiment addresses T1, hP2X2R (Homo sapiens, UniProt Q9UBL9).
T1 construct: gene P2RX2
T1 sequence (Q9UBL9 1-471): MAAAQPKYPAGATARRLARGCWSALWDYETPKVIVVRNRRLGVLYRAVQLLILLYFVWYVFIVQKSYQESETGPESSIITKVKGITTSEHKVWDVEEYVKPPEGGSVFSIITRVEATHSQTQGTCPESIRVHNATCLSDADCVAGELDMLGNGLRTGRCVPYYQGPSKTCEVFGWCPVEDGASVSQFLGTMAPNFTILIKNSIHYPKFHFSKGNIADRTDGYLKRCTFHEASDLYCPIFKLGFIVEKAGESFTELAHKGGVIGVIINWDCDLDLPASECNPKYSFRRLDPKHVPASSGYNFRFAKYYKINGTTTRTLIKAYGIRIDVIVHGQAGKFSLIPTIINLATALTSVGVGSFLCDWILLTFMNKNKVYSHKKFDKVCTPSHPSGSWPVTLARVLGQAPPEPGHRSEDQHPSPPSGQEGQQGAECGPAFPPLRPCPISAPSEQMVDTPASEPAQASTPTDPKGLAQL
Nature of the experiment: Ca2+ imaging in cells expressing hP2X2R (outsourced selectivity assay). The experiment is classed as cell-based.

One may read the IC50 as the midpoint of a concentration-inhibition curve. A higher IC50 goes with weaker potency. In turn, `O=C1CC(=O)N(c2cccc(-c3noc(=S)[nH]3)c2)c2ccc3ccccc3c2N1` [NP-1815-PX, 5-[3-(5-thioxo-4H-[1,2,4]oxadiazol-3-yl)phenyl]-1H-naphtho[1,2-b][1,4]diazepine-2,4(3H,5H)-dione] showed an IC50 of 7.3 µM.
